According to article PMC6063800 (Peptides, 2018):
Where a name gives a salt, the structure may show the parent alone. No end group written: not given here.

Columns and labels:
[1] = tested on: Staphylococcus aureus USA300; assay: microbe, parasite or virus in culture; assay type: cell-based; details: for MIC, SA: USA300, 20 h
Bacillus subtilis 168 = assay: microbe, parasite or virus in culture; assay type: cell-based; details: for MIC, BS: 168, 20 h
[2] = tested on: Escherichia coli ATCC 25922; assay: microbe, parasite or virus in culture; assay type: cell-based; details: for MIC, EC: ATCC 25922, 20 h
[3] = tested on: Klebsiella pneumoniae ATCC 13883; assay: microbe, parasite or virus in culture; assay type: cell-based; details: for MIC, KP: ATCC 13883, 20 h
[4] = tested on: Pseudomonas aeruginosa PAO1; assay: microbe, parasite or virus in culture; assay type: cell-based; details: PAO1, 20 h
S. aureus USA300 biofilm = assay: Disruption of 24-h preformed biofilms; assay type: cell-based, Staphylococcus aureus; details: linezolid in the presence of 1.56 μM temporin-1OLa versus antibiotic alone, XTT
S. aureus USA300 = assay: Checkerboard synergy of peptide and antibiotics; assay type: cell-based, Staphylococcus aureus; details: in combination with temporin-1OLa
[5] = tested on: Candida albicans ATCC 10231; assay type: cell-based; details: ATCC 10231, 48 h
C. glabrata ATCC 2001 = assay type: cell-based, Candida glabrata; details: ATCC 2001, 48 h
C. tropicalis ATCC 13803 = assay type: cell-based, Candida tropicalis; details: ATCC 13803, 48 h
[6] = tested on: Human red blood cells (hRBC); assay: Hemolytic assay; assay type: cell-based; details: red cells of human, 1 h

Compound	MIC ([1]; Staphylococcus aureus, MRSA|USA300, 20 h, read-out: MIC, SA) [µM]	MIC (Bacillus subtilis 168; Bacillus subtilis, 168, 20 h, read-out: MIC, BS) [µM]	MIC ([2]; Escherichia coli, ATCC25922, 20 h, read-out: MIC, EC) [µM]	MIC ([3]; Klebsiella pneumoniae, ATCC13883, 20 h, read-out: MIC, KP) [µM]	MIC ([4]; Pseudomonas aeruginosa, read-out: MIC, PA) [µM]	disruption of 24 h established biofilms by combination (S. aureus USA300 biofilm)	combined effect with the peptide (S. aureus USA300)	MIC, SA [1] [µM]	MIC, BS (Bacillus subtilis 168) [µM]	MIC, EC [2] [µM]	MIC, KP [3] [µM]	MIC, PA [4] [µM]	MIC, C. albicans [5] [µM]	MIC, C. glabrata (C. glabrata ATCC 2001) [µM]	MIC, C. tropicalis (C. tropicalis ATCC 13803) [µM]	HL50 (peptide concentration that causes 50% hemolysis) [6] [µM]
CN[C@H](CC(C)C)C(=O)N[C@H]1C(=O)N[C@@H](CC(N)=O)C(=O)N[C@H]2C(=O)N[C@H]3C(=O)N[C@H](C(=O)N[C@H](C(=O)O)c4cc(O)cc(O)c4-c4cc3ccc4O)[C@H](O)c3ccc(c(Cl)c3)Oc3cc2cc(c3O[C@@H]2O[C@H](CO)[C@@H](O)[C@H](O)[C@H]2O[C@H]2C[C@](C)(N)[C@H](O)[C@H](C)O2)Oc2ccc(cc2Cl)[C@H]1O [Vancomycin, vancomycin hydrochloride, reference compound]	0.78	> 3.1	> 50	> 50	> 50	–	–	–	–	–	–	–	–	–	–	–
CC(=O)NC[C@H]1CN(c2ccc(N3CCOCC3)c(F)c2)C(=O)O1 [linezolid]	–	–	–	–	–	reduce biofilms more effectively	additive effect	–	–	–	–	–	–	–	–	–
FLPIVGRLISGIL [temporin-CPb]	–	–	–	–	–	–	–	12.5	25 to 50	>50	>50	>50	50	>50	6.2 to 12.5	–
FLPLLASLFSRLF [temporin-1Oc]	–	–	–	–	–	–	–	–	12.5	>50	>50	>50	25	25	1.6 to 3.1	<12.5
FLSAITSILGKFF [temporin-1SPa]	–	–	–	–	–	–	–	6.3	12.5	>50	>50	>50	25	25	6.2	37.5
IPPFIKKVLTTVF [temporin-CPa]	–	–	–	–	–	–	–	≥25	50	12.5	50	>50	25	12.5	3.1 to 6.2	–
SILPTIVSFLSKVF [temporin-1Ga]	–	–	–	–	–	–	–	3.1	6.3	>50	>50	>50	12.5	12.5	3.1	12.5
